{
  "source": "patent US20170281602A1",
  "about": "“SOLID FORMS OF (S)-2-METHOXY-3--PROPIONIC ACID AND OF SALTS THEREOF” (Hoffmann-La Roche Inc., priority 2012, published 2017)",
  "assay_type_in_all_cases": "physicochemical",
  "key": {"[1]": {"assay": "Thermal solid-form transformation (DSC, temperature controlled XRPD)", "conditions": "for temperature of thermal transformation into Sodium salt Form A: incubation at high temperature; for glass transition temperature, above which recrystallization is likely to occur: midpoint", "experimental": "DSC curves were recorded using a Mettler-Toledo™ differential scanning calorimeter DSC820, DSC821 or DSC1 with a FRS05 sensor. System suitability tests were performed with indium as reference substance and calibrations were carried out using indium, benzoic acid, biphenyl and zinc as reference substances.\nFor the measurements, approximately 2-6 mg of sample were placed in aluminum pans, accurately weighed and hermetically closed with perforation lids. Prior to measurement, the lids were automatically pierced resulting in approx. 1.5 mm pin holes. The samples were then heated under a flow of nitrogen of about 100 mL/min using heating rates of usually 10 K/min.\n(§1) X-ray powder diffraction patterns were recorded at ambient conditions in transmission geometry with a STOE STADI P diffractometer (Cu K ? ? radiation, primary monochromator, position sensitive detector, angular range 3° to 42° 2Theta, approximately 60 minutes total measurement time). Approximately 25 mg of sample were prepared and analyzed without further processing (e.g. grinding or sieving) of the substance."}, "[2]": {"assay": "Relative stability of the solid forms (statements in words)", "conditions": "for solid form stability: in words"}, "[3]": {"assay": "Hygroscopicity of the solid forms (DVS sorption/desorption isotherms)", "conditions": "in words", "experimental": "(§2) DVS isotherms were collected on a DVS-1, DVS-HT and DVS Intrinsic (SMS Surface Measurements Systems) moisture balance system. The sorption/desorption isotherms were measured stepwise in a range of 0% RH to 90% RH at 25° C. A weight change of <0.002 mg/min was chosen as criterion to switch to the next level of relative humidity (with a maximum equilibration time of 24 hours, if the weight criterion was not met). The data were corrected for the initial moisture content of the samples; that is, the weight after drying the sample at 0% RH was taken as the reference point."}, "[4]": {"assay": "Competing slurry experiment between Free acid Forms A, B and C", "conditions": "isopropyl acetate, 20 and 60° C., seeded with Free acid Form B and Form C, 14 days, wet stage XRPD", "experimental": "Description of a typical competing slurry experiment:\n200 and 300 mg of form A of (S)-2-methoxy-3-{4-[2-(5-methyl-2-phenyl-oxazol-4-yl)-ethoxy]-benzo[b]thiophen-7-yl}-propionic acid were each suspended in ca. 1 mL of isopropyl acetate at 20 and 60° C., respectively. After 24 h the two suspensions were seeded with approximately 10 mg of Free acid Form B and Free acid Form C. After 14 days the crystals were harvested by filtration and analyzed in wet stage by XRPD."}, "[5]": {"assay": "Humidity-induced solid-form transformation (humidity controlled XRPD, DVS)", "conditions": "at 25° C.", "experimental": "as §2, §1"}, "[6]": {"assay": "Decomposition temperature of the solid form (thermal analysis)", "experimental": "TGA analysis was performed on a Mettler-Toledo™ thermogravimetric analyzer (TGA850 or TGA851). System suitability tests were performed with Hydranal as reference substance and calibrations using aluminum and indium as reference substances.\nFor the thermogravimetric analyses, approx. 5 to 10 mg of sample were placed in aluminum pans, accurately weighed and hermetically closed with perforation lids. Prior to measurement, the lids were automatically pierced resulting in approx. 1.5 mm pin holes. The samples were then heated under a flow of nitrogen of about 50 mL/min using a heating rate of 5 K/min."}},
  "data": [
    {"compound": "CO[C@@H](Cc1ccc(OCCc2nc(-c3ccccc3)oc2C)c2ccsc12)C(=O)[O-].[Na+]", "note": "[Sodium salt Form B, sodium (S)-2-methoxy-3-{4-[2-(5-methyl-2-phenyl-oxazol-4-yl)-ethoxy]-benzo[b]thiophen-7-yl}-propanoate]", "values": [
      {"measurement": "temperature of thermal transformation into Sodium salt Form A", "setting": "[1]", "value": "> 120", "unit": "°C"},
      {"measurement": "solid form stability", "setting": "[2]", "value": "metastable"}
    ]},
    {"compound": "CO[C@@H](Cc1ccc(OCCc2nc(-c3ccccc3)oc2C)c2ccsc12)C(=O)O", "note": "[Free acid Form C, (S)-2-methoxy-3-{4-[2-(5-methyl-2-phenyl-oxazol-4-yl)-ethoxy]-benzo[b]thiophen-7-yl}-propionic acid]", "values": [
      {"measurement": "temperature of transformation into Free acid Form B", "setting": "[1]; extrapolated peak DSC", "value": "ca. 150 °C"},
      {"measurement": "thermodynamic stability among polymorphs", "setting": "[2]; at ambient temperature", "value": "thermodynamically less stable than Free acid Form A and Free acid Form B"}
    ]},
    {"compound": "CO[C@@H](Cc1ccc(OCCc2nc(-c3ccccc3)oc2C)c2ccsc12)C(=O)O", "note": "[Free acid Form E, (S)-2-methoxy-3-{4-[2-(5-methyl-2-phenyl-oxazol-4-yl)-ethoxy]-benzo[b]thiophen-7-yl}-propionic acid]", "values": [
      {"measurement": "solid form stability", "setting": "[2]", "value": "transforms into Free acid Form B upon mild heating"}
    ]},
    {"compound": "CO[C@@H](Cc1ccc(OCCc2nc(-c3ccccc3)oc2C)c2ccsc12)C(=O)O", "note": "[Free acid Form A, (S)-2-methoxy-3-{4-[2-(5-methyl-2-phenyl-oxazol-4-yl)-ethoxy]-benzo[b]thiophen-7-y1}-propionic acid]", "values": [
      {"measurement": "temperature of transformation into Free acid Form B", "setting": "[1]; temperature controlled XRPD", "value": "> 85", "unit": "°C"},
      {"measurement": "thermodynamic stability among polymorphs", "setting": "[2]; below ca. 60° C.", "value": "thermodynamically most stable polymorph"},
      {"measurement": "hygroscopicity", "setting": "[3]", "value": "non-hygroscopic"},
      {"measurement": "solid form obtained in competing slurry", "setting": "[4]", "value": "pure Free acid Form A is obtained"}
    ]},
    {"compound": "CO[C@@H](Cc1ccc(OCCc2nc(-c3ccccc3)oc2C)c2ccsc12)C(=O)[O-].[Na+]", "note": "[Sodium salt Form C, sodium (S)-2-methoxy-3-{4-[2-(5-methyl-2-phenyl-oxazol-4-yl)-ethoxy]-benzo[b]thiophen-7-yl}-propanoate]", "values": [
      {"measurement": "relative humidity below which reversible transformation into a dehydrated solid form occurs", "setting": "[5]; humidity controlled XRPD", "value": "< 15", "unit": "%-RH"}
    ]},
    {"compound": "CO[C@@H](Cc1ccc(OCCc2nc(-c3ccccc3)oc2C)c2ccsc12)C(=O)O", "note": "[Free acid Form D, (S)-2-methoxy-3-{4-[2-(5-methyl-2-phenyl-oxazol-4-yl)-ethoxy]-benzo[b]thiophen-7-yl}-propionic acid]", "values": [
      {"measurement": "solid form stability", "setting": "[2]", "value": "transforms into Free acid Form B upon storage at ambient conditions over time"}
    ]},
    {"compound": "CO[C@@H](Cc1ccc(OCCc2nc(-c3ccccc3)oc2C)c2ccsc12)C(=O)O", "note": "[Free acid Form B, (S)-2-methoxy-3-{4-[2-(5-methyl-2-phenyl-oxazol-4-yl)-ethoxy]-benzo[b]thiophen-7-y1}-propionic acid]", "values": [
      {"measurement": "temperature below which spontaneous transformation into Free acid Form A occurs", "setting": "[1]; extrapolated peak DSC", "value": "< −5", "unit": "°C"},
      {"measurement": "temperature of spontaneous solid-solid retransformation into Free acid Form A", "setting": "[1]; observed at this temperature or below", "value": "≤ 45", "unit": "°C"}
    ]},
    {"compound": "CO[C@@H](Cc1ccc(OCCc2nc(-c3ccccc3)oc2C)c2ccsc12)C(=O)[O-].[Na+]", "note": "[Sodium salt amorphous form, sodium (S)-2-methoxy-3-{4-[2-(5-methyl-2-phenyl-oxazol-4-yl)-ethoxy]-benzo[b]thiophen-7-yl}-propanoate]", "values": [
      {"measurement": "temperature of thermal transformation into Sodium salt Form A", "setting": "[1]", "value": "> 115", "unit": "°C"},
      {"measurement": "glass transition temperature, above which recrystallization is likely to occur", "setting": "[1]", "value": "approx. 65.5 °C"},
      {"measurement": "relative humidity above which transformation into hydrated form occurs", "setting": "[5]", "value": "Above 50 % RH"},
      {"measurement": "hygroscopicity", "setting": "[3]", "value": "hygroscopic"}
    ]},
    {"compound": "CO[C@@H](Cc1ccc(OCCc2nc(-c3ccccc3)oc2C)c2ccsc12)C(=O)[O-].[Na+]", "note": "[Sodium salt Form A, sodium (S)-2-methoxy-3-{4-[2-(5-methyl-2-phenyl-oxazol-4-yl)-ethoxy]-benzo[b]thiophen-7-yl}-propanoate]", "values": [
      {"measurement": "temperature of transformation into Sodium salt Form B", "setting": "[1]", "value": "> 208", "unit": "°C"},
      {"measurement": "relative humidity above which transformation into hydrated form occurs", "setting": "[5]", "value": "> 80", "unit": "% RH"}
    ]},
    {"compound": "diisopropylammonium (S)-2-methoxy-3-{4-[2-(5-methyl-2-phenyl-oxazol-4-yl)-ethoxy]-benzo[b]thiophen-7-yl}-propanoate [Diisopropylammonium salt Form A]", "values": [
      {"measurement": "hygroscopicity", "setting": "[3]", "value": "slightly hygroscopic"},
      {"measurement": "decomposition temperature", "setting": "[6]", "value": "approx. 100 °C"}
    ]},
    {"compound": "CO[C@@H](Cc1ccc(OCCc2nc(-c3ccccc3)oc2C)c2ccsc12)C(=O)O", "note": "[amorphous form of the Free acid, (S)-2-methoxy-3-{4-[2-(5-methyl-2-phenyl-oxazol-4-yl)-ethoxy]-benzo[b]thiophen-7-yl}-propionic acid]", "values": [
      {"measurement": "glass transition temperature, above which recrystallization is likely to occur", "setting": "[1]", "value": "approx. 44 °C"},
      {"measurement": "hygroscopicity", "setting": "[3]; listed as amorphous form of (S)-2-methoxy-3-{4-[2-(5-methyl-2-phenyl-oxazol-4-yl)-ethoxy]-", "value": "hygroscopic"}
    ]}
  ]
}
